In the NIST ThermoML archive (doi:10.1021/je100198g) one finds interfacial tension data, which are given here for one compound.

The conditions of the data set: 297.9 K, Liquid mixture 1, Pendant drop shape.

Numbers after ± are expanded uncertainties.

`O=C=O` [carbon dioxide] + O: the interfacial tension (7020 kPa) was 31.9 ± 0.7 mN/m; the interfacial tension (8020 kPa) is given as 31.9 ± 0.7 mN/m; the interfacial tension (10010 kPa) is listed as 31.8 ± 0.7 mN/m; the interfacial tension (14990 kPa) is 30.6 ± 0.7 mN/m; the interfacial tension (19990 kPa) amounted to 30 ± 0.7 mN/m.
